These results are taken from ChEMBL document CHEMBL1201862, “PubChem BioAssay data set” (2004).

Some test systems named below: DMS-114; HOP-18; KM-20L2; LXFL 529; DLD-1; DMS-273; SNB-78; XF498; RXF 631.
Assay in all cases: inhibition of tumour cell growth, NCI panel, 48 h

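Assay format: 96-well plates, 48-hour exposure. Abbreviation: GI50, concentration required for 50% inhibition of growth.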 Active and inactive are the calls of the source. Rule as the data show it: active = GI50 up to about 1.1 µM and inactive = higher.

Turning to `Cn1c(N)c(-c2c3ccccc3nc3ccccc23)c(=O)n(C)c1=O`, the GI50 with DMS-114, in the assay on HOP-18, with KM-20L2 and with LXFL 529 was > 100 µM (inactive) in each case.
Regarding `O=C(c1ccc2c3c(ccc(C(=O)C(F)(F)F)c13)CC2)C(F)(F)F`, the GI50 is 88.1 µM (inactive) in the assay on DLD-1; 41.4 µM (inactive) with DMS-114; 27.9 µM (inactive) in the assay with DMS-273; 53.2 µM (inactive) in the assay on HOP-18; 35.2 µM (inactive) with KM-20L2; 40.3 µM (inactive) with LXFL 529. Besides, the GI50 in the assay with SNB-78 was > 100 µM (inactive); with XF498, 9.31 µM (inactive).
Take `CCOC(=O)C(=O)Nc1nc2c(OCC)cccc2s1`: the GI50 in the assay on DLD-1, with DMS-114, in the assay with DMS-273, with HOP-18, in the assay on KM-20L2 and in the assay with LXFL 529 was > 100 µM (inactive) each time. The GI50 in the assay on RXF 631 and in the assay on SNB-78 was > 100 µM (inactive) each time.
With `O=C(Nc1cccc(NC(=O)c2cc(=O)c3ccccc3o2)n1)c1cc(=O)c2ccccc2o1`, the GI50 is 75.9 µM (inactive) in the assay with DLD-1; 19.2 µM (inactive) in the assay on DMS-114; 9.64 µM (inactive) in the assay on DMS-273; 68.4 µM (inactive) in the assay on KM-20L2; 7.69 µM (inactive) in the assay with LXFL 529; 51.5 µM (inactive) in the assay on RXF 631. In addition, the GI50 in the assay with SNB-78 is > 100 µM (inactive).
Consider `CS(=O)(=O)CSCSSCS(C)(=O)=O`, for which the GI50 in the assay with DLD-1 is 30 µM (inactive); in the assay on DMS-114, 27.3 µM (inactive); with DMS-273 it was 25.9 µM (inactive); in the assay with HOP-18 it was 37.6 µM (inactive); in the assay with KM-20L2, 55.8 µM (inactive); in the assay with LXFL 529, 18.1 µM (inactive). In addition, the GI50 in the assay on RXF 631 was 32 µM (inactive); with SNB-78 it was 49.4 µM (inactive); with XF498, 32 µM (inactive).
With `N#CC(/C(=N/NC(=O)C(=O)NN)C(=O)Nc1nc([N+](=O)[O-])cs1)c1ccc(Cl)cc1` (stereo not given), the GI50 with DLD-1, in the assay with DMS-114, in the assay on KM-20L2, in the assay with LXFL 529, with SNB-78 and in the assay on XF498 was > 100 µM (inactive) in each case.
For the molecule `Oc1ccc(O)c(-n2cccn2)c1`, the GI50 with DLD-1 is 63 µM (inactive); in the assay on DMS-114 it was 29.6 µM (inactive); in the assay on DMS-273 it was 75.5 µM (inactive); in the assay on KM-20L2 it was > 100 µM (inactive); in the assay with LXFL 529, 20.9 µM (inactive); in the assay with RXF 631, 50 µM (inactive). Further, the results for the GI50 in the assay with SNB-78 and with XF498 were 58.5 µM (inactive) and > 100 µM (inactive), respectively.
In the case of `O=C(CCc1nnc2s/c(=C\c3ccc([N+](=O)[O-])cc3)c(=O)n12)Nc1ccc(Cl)c(Cl)c1`, the GI50 is 19.3 µM (inactive) in the assay with DLD-1; 17.3 µM (inactive) with DMS-114; 24.5 µM (inactive) in the assay with DMS-273; 47.9 µM (inactive) in the assay on KM-20L2; 13.4 µM (inactive) in the assay with LXFL 529; 49.9 µM (inactive) in the assay with RXF 631. The results for the GI50 with SNB-78 and with XF498 were 25.4 µM (inactive) and 27.6 µM (inactive), respectively.
Regarding `COc1ccc(CNc2nc3ccccc3nc2-c2cccs2)cc1OC`, the GI50 in the assay on DMS-273 is 50.5 µM (inactive); in the assay with HOP-18, > 100 µM (inactive); in the assay with KM-20L2, 68.4 µM (inactive); in the assay on LXFL 529, 15.7 µM (inactive); in the assay on RXF 631 it was 29.7 µM (inactive); in the assay on SNB-78, 82.8 µM (inactive). For the same molecule, the GI50 in the assay on XF498 was 16 µM (inactive).
In the case of `Cc1ccccc1NC(=O)C(=O)C(c1cnc2ccc([N+](=O)[O-])cc2n1)[N+](=O)[O-]` (stereo not given), the GI50 was > 100 µM (inactive) in the assay with DLD-1; 43 µM (inactive) with DMS-114; 44.5 µM (inactive) with DMS-273; > 100 µM (inactive) with HOP-18; > 100 µM (inactive) in the assay on KM-20L2; 70.3 µM (inactive) in the assay with RXF 631. Further, the GI50 in the assay with SNB-78 was > 100 µM (inactive).
In the case of `N#C/C1=C(\N)CCSSSC1`, the GI50 in the assay on DLD-1 is 31.7 µM (inactive); with DMS-114, 32.7 µM (inactive); with DMS-273, 33.3 µM (inactive); with KM-20L2, 26.9 µM (inactive); in the assay with LXFL 529, 33.1 µM (inactive); with RXF 631, 41.1 µM (inactive). In addition, the GI50 with SNB-78 was 21.7 µM (inactive); in the assay on XF498, 51.6 µM (inactive).
For the molecule `CCC1=C(CC2NCCc3ccccc32)CC2c3cc(OC)c(OC)cc3CCN2C1` (stereo not given), the GI50 in the assay with DLD-1 was 2.49 µM (inactive); in the assay with DMS-273, 0.618 µM (active); with KM-20L2, 0.891 µM (active); in the assay with LXFL 529, 0.995 µM (active); in the assay on RXF 631, 1.45 µM (inactive); in the assay with SNB-78, 1.44 µM (inactive). In the assay on XF498, the GI50 was 0.8 µM (active).
Take `CC(=O)Nc1ccccc1[S+]([O-])c1ccccc1` (stereo not given): the GI50 with DLD-1, in the assay with DMS-114, in the assay with DMS-273, in the assay with HOP-18, in the assay with KM-20L2 and with LXFL 529 was > 100 µM (inactive) each time. The GI50 in the assay on RXF 631, with SNB-78 and in the assay with XF498 was > 100 µM (inactive) each time.
Take `C#CCN(C)C(=O)N(CC#C)N=O`: the GI50 with DLD-1, in the assay with DMS-114, with DMS-273, in the assay with HOP-18, in the assay with KM-20L2 and with LXFL 529 was > 100 µM (inactive) each time. Also, the GI50 in the assay on RXF 631 and with SNB-78 was > 100 µM (inactive) in each case.
Regarding `CC(C)(CN1CCCCC1)C(=O)/C=C/c1ccccc1`, the GI50 is 13.7 µM (inactive) in the assay with DLD-1; 14.4 µM (inactive) in the assay with DMS-114; 13.5 µM (inactive) in the assay on DMS-273; 10.3 µM (inactive) in the assay on KM-20L2; 16.9 µM (inactive) in the assay on LXFL 529; 21.1 µM (inactive) with RXF 631. Moreover, the GI50 is 22.5 µM (inactive) with SNB-78 and 14.7 µM (inactive) with XF498.
Take `CCc1cc(Cc2cc(CC)c(NC(=O)C3=CC(=O)CC(c4ccc(OC)cc4)O3)c(CC)c2Cl)c(Cl)c(CC)c1NC(=O)C1=CC(=O)CC(c2ccc(OC)cc2)O1` (stereo not given): the GI50 in the assay on DLD-1 was 18.4 µM (inactive); with DMS-114 it was 17.7 µM (inactive); with DMS-273, 21.7 µM (inactive); in the assay on HOP-18, 22.1 µM (inactive); in the assay on KM-20L2, 26.7 µM (inactive); with LXFL 529, 18 µM (inactive). The GI50 is 89.7 µM (inactive) in the assay with RXF 631 and 28.2 µM (inactive) in the assay on SNB-78.
As to `O=C(c1ccccc1)C(c1ccccc1)C1(O)C(=O)Nc2ccccc21` (stereo not given), the GI50 in the assay with DLD-1, in the assay on DMS-114, with DMS-273, in the assay on KM-20L2, with LXFL 529 and in the assay on RXF 631 was > 100 µM (inactive) each time. In addition, the GI50 in the assay on SNB-78 and with XF498 was > 100 µM (inactive) throughout.
As for `Cc1ccc(S(=O)(=O)n2cc(/C=C/C#N)c(/C=C/C#N)c2)cc1`, the GI50 in the assay on DMS-114 was 22.6 µM (inactive); in the assay on DMS-273, 49.5 µM (inactive); with HOP-18, 20.8 µM (inactive); in the assay on KM-20L2 it was 93.3 µM (inactive); with LXFL 529 it was > 100 µM (inactive); in the assay on RXF 631, > 100 µM (inactive). In addition, the GI50 in the assay with XF498 was > 100 µM (inactive).
On to `Cc1ccc(C(=O)NC(C)C)cc1/N=N/N(C)C`, for which the GI50 with DLD-1 was 65 µM (inactive); with DMS-273 it was > 100 µM (inactive); in the assay with KM-20L2, > 100 µM (inactive); in the assay on LXFL 529, > 100 µM (inactive); with SNB-78 it was > 100 µM (inactive).
Regarding `CC(=O)O[C@H]1CCN2C(=O)C=CC(OCc3ccccc3)C12` (stereo not given in full), the GI50 in the assay with DLD-1, with DMS-114, in the assay on DMS-273, in the assay with HOP-18, in the assay on KM-20L2 and with LXFL 529 was > 100 µM (inactive) each time. Also, the GI50 in the assay on SNB-78 and in the assay on XF498 was > 100 µM (inactive) each time.
Turning to `CC12CC[C@@H](C(C)(C)O)C1[C@@H](O)CC1(C)C2CCC2[C@@]3(C)CC[C@H](O)C(C)(C)C3C(O)C[C@]21C` (stereo not given in full), the GI50 in the assay with DLD-1 was 19.8 µM (inactive); in the assay on DMS-114, 13.6 µM (inactive); in the assay with HOP-18 it was 24.6 µM (inactive); with KM-20L2, 10 µM (inactive); with LXFL 529, 14 µM (inactive); with RXF 631, 18.5 µM (inactive). Also, the GI50 in the assay on SNB-78 was 14.6 µM (inactive).
`CCCCCCCCCCCCCCCC(=O)OCC1OC(n2ccc(N)nc2=O)C(O)C1O` (stereo not given): the GI50 in the assay with DMS-273 is 2.04 µM (inactive); in the assay on HOP-18 it was 6.31 µM (inactive); in the assay with KM-20L2, > 24.8 µM (inactive); with LXFL 529 it was > 100 µM (inactive); in the assay with SNB-78 it was > 100 µM (inactive); in the assay with XF498, > 100 µM (inactive).
Turning to `O=c1c2ccccc2n2nnc3ccc(NCCNCCO)c1c32`, the GI50 in the assay with DLD-1 is 2.19 µM (inactive); with DMS-114, 3.2 µM (inactive); in the assay on DMS-273 it was 2.62 µM (inactive); with HOP-18 it was 0.183 µM (active); in the assay on KM-20L2 it was 1.29 µM (inactive); in the assay on LXFL 529, 2.42 µM (inactive). For the same molecule, the GI50 was 1.85 µM (inactive) with RXF 631, 7.71 µM (inactive) in the assay on SNB-78 and 5.7 µM (inactive) in the assay on XF498.
